The test system of data set [1] is SHP-1 and SHP-2. In words: SSG inhibition of recombinant and intracellular SHPs (applicant's earlier studies). To be noted: clinically achievable levels.
Data set [2] deals with SHP-1 substrate pLck-pY394 in Jurkat T cells. The data set can be described thus: induction of pLck-pY394 in Jurkat cells (SDS-PAGE/Western blotting). In kind it is cell-based, human. The procedure: (§1) Jurkat cells in culture medium (3×10^6 cells/ml, 1 ml/tube) were treated with agents for designated times at room temperature. After brief centrifuging in a microfuge (4,000 rpm, 2 min), the cell pellet was lysed on ice for 30 min in 100 μl of cold lysis buffer (1% NP40, 50 mM Tris, pH 7.4, 150 mM NaCl, 20 mM NaF, 0.2 mM Na3VO4 and 1 mM Na3MO4) containing a cocktail of proteinase inhibitors (Sigma, 1 tablet/10 ml). The lysates were cleared by centrifuging (14,000 rpm, 10 min) in a microfuge at 4° C. to remove insoluble parts, mixed with equal volume of 2×SDS-PAGE sample buffer, boiled for 5 min and analyzed (˜3×10^5 cells/well) by SDS-PAGE/Western blotting. Relative intensities of phosphotyrosine bands were quantified through densitometry analysis.
as §1, with “blotting as described previously (23, 24).” for “blotting.”
as §1, with “blotting as described previously (17, 18).” for “blotting.”

Data set [3] concerns the target T1, recombinant SHP-1 (Homo sapiens, UniProt P29350).
T1 construct: Recombinant protein of SHP-1 PTPase catalytic domain was described
T1 sequence (P29350 244-515 limits assumed): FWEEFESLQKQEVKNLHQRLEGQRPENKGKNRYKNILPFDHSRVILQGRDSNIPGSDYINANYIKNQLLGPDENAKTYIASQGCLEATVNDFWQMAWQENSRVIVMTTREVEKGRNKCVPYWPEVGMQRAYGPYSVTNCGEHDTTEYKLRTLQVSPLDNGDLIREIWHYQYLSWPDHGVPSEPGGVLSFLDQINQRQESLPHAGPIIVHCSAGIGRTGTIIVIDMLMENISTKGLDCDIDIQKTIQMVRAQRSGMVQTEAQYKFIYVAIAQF
In words: rapid in vitro SHP-1 PTPase assay (DIFMUP substrate). In kind it is biochemical. Particulars: 1 μg/well; FIG. 12A. The method, then:
Recombinant protein of SHP-1 PTPase catalytic domain was described and stored in Tris buffer (25 mM Tris, pH7.5, 1 mM EDTA, 2 μM 2-ME, 25% glycerol) at −80° C. Fluorescence substrate DIFMUP (6,8-difluoro-4 methylumbelliferyl phosphate) was purchased (Molecular Probes). SSG was reported previously (21-23) and stored at 4° C. in darkness prior to use. Human and mouse IFNγ ELISPOT Kit (R & D System), CD4^+ Cell Intracellular IFNγ Detection Kit (BD Bioscience) and CD8^+ Cell Intracellular IFNγ Detection Kit (BD Bioscience) were purchased from commercial sources. Human Jurkat T cell line (26) and murine B16 melanoma cell line (ATCC) were maintained in […] culture medium supplemented with 10% fetal calf serum (FCS). Antibodies against pLck-pY394 (Cell Signaling), pLck-pY505 (Cell Signaling), pZap70 (pY319, BD Biosciences), pSlp76 (pY128, BD Biosciences) and pLat (pY226, BD Biosciences) were purchased from commercial sources.
(§2) A rapid SHP-1 PTPase assay was developed for screening the compounds in a commercial library of 34,000 drug-like small chemicals (Chembridge, Mass.). Briefly, compounds of the library (1 μg/well in 0.21 DMSO) were placed in 96-well plates (Falcon, 353072) and mixed with recombinant SHP-1 protein (0.1 μg/well) in 90 μl of HEPES buffer (50 mM HEPS, pH 7.5, 150 mM NaCl, 1 mM EDTA, 0.2 mM DTT and 0.1 mg/ml BSA). The plates were incubated at room temperature for 10 minutes prior to the addition of fluorescence substrate DIFMUP (40 μM stock in HEPES buffer, 10 μl/well) to initiate PTPase reaction. Upon completion of PTPase reaction at room temperature for 1 hr in darkness, fluorescence signal of individual wells were recorded using a Vector^2 Multilabel Counter (Vector, CA). They were compared to that of control SHP-1 PTPase reaction (˜10,000 units of fluorescence signal) in the absence of any compound (100%) for calculating relative SHP-1 inhibition induced by the compounds after subtracting the background signal (˜500 units of fluorescence signal) of the substrate.
as §2, with “To evaluate their” for “A rapid”, “inhibitory activity,” for “PTPase assay was developed for screening”, “analogs” for “compounds in a commercial library of 34,000 drug-like small chemicals (Chembridge, Mass.). Briefly, compounds of the library”, “0.2 μl” for “0.21”, “aliquot individually to” for “placed in”, “(500” for “(˜500”

For data set [4], the system named is MKPs. The data set can be described thus: induction of MKPs substrates in Jurkat cells (Western blotting). The format is cell-based, human. The procedure: FIG. 22 illustrates selective induction of MKPs substrates by L6 and analogs in Jurkat human leukemic cells. Jurkat cells were treated with the compounds for 30 min in culture prior to quantification of MKPs substrates by SDS-PAGE/Western blotting.

In data set [5] the test system is Jurkat cells. The data set can be described thus: Jurkat cell apoptosis (Annexin V / 7-AAD, FACS). In kind it is cell-based, human. Particulars: 16 hrs (FIG. 23). The procedure:
FIG. 23 illustrates jurkat cells were treated with L6 and analogs in culture for 16 hrs. Cells were then stained for apoptotic marker Annexin V and cell death marker 7-AAD prior to FACS analysis.

The test system of data set [6] is HT-29 human colon cancer cells. In words: cytotoxicity of 5FU against HT-29 cells with L6 or analogs (MTT assay). The format is cell-based. To be noted: 5FU 2 μm, 3 days, then 4 days culture (FIG. 24). The procedure: FIG. 24 illustrates HT-29 cells were treated with L6 or the analogs in the absence or presence of 5FU (2 μm) for 3 days. After washing, the cells were cultured for 4 days prior to quantification of viable cells by MTT assays.

Data set [7] concerns CD3+ and CD3− IFNγ+ splenocytes. In words: spleno-IFNγ+ T cells in B16 tumor mice (flow cytometry). In kind it is in vivo, mouse. Particulars: 1 mg/kg oral, day 22. The procedure:
Splenocytes from mice untreated or treated with L5a2 were stained with appropriate isotype control antibodies or FICT-labeled anti-CD3 monoclonal antibody (BD) plus PE-labeled monoclonal antibody (BD) for intracellular IFNγ following established procedures. The stained samples were washed 3 times, re-suspended in 200 μl of 1% para-formaldehyde solution and analyzed (20,000 cells/sample) using a BD FACS Caliburs cytometer and FlowJoe software.
To gain further insights into the mechanism of action in L5a2 in vivo, spleens were harvested from the B16 tumor mice in the control and the L5a2-treated groups (FIG. 13A) on day 22 to assess whether L5a2 induced IFNγ+ cells in the tumor-bearing mice. It was also determined whether the induced-IFNγ+ cells were of CD3+ T lymphocytes, which were activated TH1 critical for anti-tumor immunity. Splenocytes were prepared and co-stained for intracellular IFNγ and the T cell surface marker CD3 for quantification of IFNγ+T cells by flow cytometry.

Data set [8] concerns IFNγ+ cells in mouse splenocytes. In words: induction of IFNγ+ cells in mouse splenocytes in vitro (ELISPOT). In kind it is cell-based. The method, then:
The splenocytes were cultured in RPMI 1640 medium supplemented with 10% FCS in the absence or presence of designated agents for 16 hrs in flat-bottom 96-well plates coated with a monoclonal antibody specific for mouse IFNγ (mouse IFNγ ELISPOT Kit, R & D System). The plates were then processed for in situ detection of IFNγ+ cells by ELISA following the manufacturer's procedure. Scanning and counting of IFNγ+ cells in the plates were accomplished using an automatic ELISPOT reader with Immunospot2 software (Cellular Technology Ltd). Mouse splenocytes were also untreated or treated with agents for 16 hrs in culture dishes and then stained with appropriate isotype control antibodies or FICT-labeled anti-CD3 monoclonal antibody (BD) plus PE-labeled monoclonal antibody (BD) for intracellular IFNγ following established procedures. The stained samples were washed 3 times, re-suspended in 200 μl of 1% para-formaldehyde solution and analyzed (20,000 cells/sample) using a BD FACS Caliburs cytometer and WinList software.
The splenocytes were cultured in RPMI 1640 medium supplemented with 10% FCS in the absence or presence of designated agents for 16 hrs in flat-bottom 96-well plates coated with a monoclonal antibody specific for mouse IFNγ (mouse IFNγ ELISPOT Kit, R & D System). The plates were then processed for in situ detection of IFNγ+ cells by ELISA following the manufacturer's procedure. Scanning and counting of IFNγ+ cells in the plates were accomplished using an automatic ELISPOT reader with Immunospot2 software (Cellular Technology Ltd).

The subject of data set [9] is B16 melanoma cells. The data set can be described thus: B16 melanoma cell growth in culture (MTT assay). The format is cell-based, mouse. To be noted: 6 days (FIG. 13C). From the text: L5, L6 and L6 analogs (Chembridge), mouse IFNγ ELISPOT Kit (R & D System) and antibody against pLck-pY394 or pERK1/2 (Cell Signaling) were purchased from commercial sources. Human Jurkat T cell line and murine B16 melanoma cell line (ATCC) and other cancer cell lines were maintained in […] culture medium supplemented with 10% fetal calf serum (FCS). The effects of chemical compounds on cancer cell growth in culture were quantified by MTT assays following our established procedures.

The test system of data set [10] is B16 melanoma tumors. The data set can be described thus: B16 melanoma tumor growth in C57BL/6J mice. The format is in vivo.
Experimental: Tumor volume (n=5) was measured during the study period and calculated using the formula for a prolate spheroid. Student's t test was used for assessing the significance of tumor volume differences among differential treatment groups. Mouse viability (daily) and body weights (weekly) were also recorded during the study period. Major internal organs of the mice were inspected visually upon their termination at the end of the experiment.
To assess anti-tumor activity, C57BL/6J mice (˜8-week old, female, Taconic Farms, Germantown, N.Y.) were inoculated (s.c.) at the flanks with B16 melanoma cells (4×10^4 cells/site). […] Tumor volume (n=5) was measured during the study period and calculated using the formula for a prolate spheroid. Student's t test was used for assessing the significance of tumor volume differences among differential treatment groups. Mouse viability (daily) and body weights (weekly) were also recorded during the study period. Major internal organs of the mice were inspected visually upon their termination at the end of the experiment.

With `O.O.O.O.O.O.O.O.O.O=C([O-])[C@@H]1[O][Sb]2([O-])([O][Sb]34([OH])[O][C@H]([C@H](O)CO)[C@H]([O]3)[C@H](C(=O)[O-])[O]4)[O][C@H]([C@H](O)CO)[C@@H]1[O]2.[Na+].[Na+].[Na+]` [SSG, Sodium Stibogluconate, reference compound], the “level at which recombinant and intracellular SHP-1 and SHP-2 are inhibited” value in [1] came to 10 µg/mL. Besides, the pLck-pY394 induction entry in data set [2] (lower (1 μg/ml) or higher (100 μg/ml) doses) is recorded as “failed”.
Take `O=C1C=CC(=O)C(c2ccc(Cl)cc2Cl)=C1` [L5a1]: the “effectiveness in inducing pLck-pY394 relative to L5” value in data set [2] (Jurkat cells, 10 min (FIG. 10)) was about 50%. In addition, in data set [3], the “inhibition of phosphatase activity of recombinant SHP-1” value (“inhibition … of recombinant SHP-1” for short) is on record as “completely or almost completely inhibited”.
As to `O=c1cc(Cl)sn1Cc1ccccc1` [L6a1], the “MKP predominantly targeted (as indicated by effects on the substrates)” value in data set [4] is listed as “inhibited HVH3”. Further, in data set [4] (30 min (FIG. 22), L6 at 1-100 ng/ml), the “differential effects on MKP substrates (pERK1/2, p38, pJNK)” value is given as “lack of activity to induce pJNK or p-p39”. In addition, the Jurkat cell apoptosis result in data set [5] is given as “failed to induce apoptosis”. Further, in [6], the “augmentation of 5FU cytotoxicity against HT-29 cells” value was “not”.
Consider `O=C1C=CC(=O)C(c2cccc(Cl)c2)=C1` [L5a2], for which, in data set [7], the “increase of CD3+ IFNγ+ cells” value is about 4.5 fold and the “increase of CD3− IFNγ+ cells” value came to 1.3 fold. For the same compound, the “immune cell activation (increase)” value in data set [8] (FIG. 11) is about 20 fold. In data set [3], the “inhibition … of recombinant SHP-1” value is given as “completely or almost completely inhibited”. The “inhibition of B16 melanoma cells in culture” value in data set [9] is listed as “failed to inhibit B16 melanoma cells in culture”. Further, in data set [10] (1 mg/kg body weight daily, Monday-Friday/week, oral gavage), the “growth inhibition of B16 tumors vs control” value was about 75%. Further, the “survival of treated mice” value in data set [10] (1 mg/kg daily, oral gavage) was “survived till the end of the study”.
For `COc1ccc(C2=CC(=O)C=CC2=O)cc1` [L5a5], the “inhibition … of recombinant SHP-1” value in data set [3] is “completely or almost completely inhibited”.
`O=C1C=C(c2ccccc2)C(=O)c2ccccc21` [L5a3]: in data set [3], the “inhibition … of recombinant SHP-1” value is about 80%.
In the case of `O=C1C=C(c2ccccc2Cl)CC(=O)C1` [L5a10], the “effect on pLck-pY394 levels” value in data set [2] (Jurkat cells, 10 min (FIG. 10)) is listed as “failed to induce pLck-pY394”. Besides, the “induction of spleno-IFNγ+ cells (average)” value in data set [8] (doses from 1-30 μg/ml) is about 2 folds. Also, the “inhibition … of recombinant SHP-1” value in data set [3] was about 5%. Besides, the “inhibition of B16 melanoma tumors in mice” value in [10] (preliminary experiment) is recorded as “failed to inhibit B16 melanoma tumors”.
Regarding `CCOc1ccc(C2=CC(=O)C=CC2=O)cc1` [L5a4], in [3], the “inhibition … of recombinant SHP-1” value is listed as “completely or almost completely inhibited”.

These data come from patent US20080051464A1, “Protein phosphatase inhibitors” (The Cleveland Clinic Foundation, priority 2006, published 2008).
